Assay results reported in patent US20090312411A1, “PREVENTING OR REDUCING RISK OF MISCARRIAGES” (New York Society for the Raptured and Crippled Maintaining …, priority 2008, published 2009).

Experiments:
monocytes = experiment: sFlt-1 release by monocytes in vitro (ELISA); assay type: cell-based, mouse; settings: 10 nM C5a for 4 h; pravastatin 5 μg/ml for 3 hours prior to C5a
Experimental: Protocol. Mice with a selective deletion of the TF gene in myeloid cells (TF^floxed/floxed/LysM-Cre mice) (Redecha et al., supra), were used for isolation of monocytes to study sVEGFR-1 production in vitro. Blockade of TF was carried out as in Example 17 by i.p. injections of anti-mTF antibody 1H1.
Protocol. Splenocytes were prepared from non pregnant CBA/J female mice and incubated for 4 h in culture medium supplemented with 10% inactivated fetal bovine serum (FBS). Non adherent cells were removed and adherent cells (>95% peroxidase-positive) were incubated in culture medium with the addition of 10 nM mouse recombinant C5a. A group of adherent monocytes was treated for 3 hours with pravastatin (5 μg/ml) prior to incubation with C5a. After 4 h of incubation with C5a, culture supernatants were collected and analyzed for sVEGFR-1 by ELISA (R&D Systems).

sFlt-1 = experiment: Plasma sFlt-1 (sVEGFR-1) ELISA in CBA/J×DBA/2 mice; assay type: in vivo, mouse; settings: day 7 of pregnancy
Experimental: Protocol. To determine the effect of pravastatin treatment on pregnancy loss and oxidative stress, group of mice was treated with pravastatin (Sigma Chemicals, St Louis, Mo.; 5 μg/mouse, IP) from day 4 to 15 of pregnancy. Pravastatin was directly dissolved in sterile PBS. Blood samples were obtained from pregnant females from days 1 to 15 of pregnancy from the submandibular vein. Nitric oxide (NO) was measured by a […] method (R&D Systems). Plasma sVEGFR-1 was measured with a commercial ELISA kit (R&D Systems).

TF = TF expression on peripheral blood monocytes, 2-color FACS; assay type: in vivo, mouse; settings: CBA/J×DBA/2 mice, FIG. 17G
Experimental: Determining TF Expression. TF expression on peripheral blood monocytes was analyzed by 2-color fluorescence-activated cell sorting (FACS). Heparinized whole blood obtained at day 7 from DBA/2 or BALB/c mated CBA/J females was stained with fluorescein isothiocyanate (FITC)-labeled anti-mouse F4/80 for FL1 (BD Biosciences Pharmingen) to identify monocytes and biotinylated rat anti-mTF antibody 1H1 and streptavidin-PerCP (BD Biosciences Pharmingen) as the FL3 fluorochrome. Red cells were lysed with ACK buffer (Redecha et al., supra). Preparations were then incubated with SA-PerCP and analyzed by FACS using a FACscan (BD Biosciences Pharmingen).

CBA/J×DBA/2 mice [1] = experiment: Litter size at birth in CBA/J×DBA/2 matings; assay type: in vivo, mouse; settings: CBA/J×DBA/2 mice followed until delivery; FIG. 15C, 17C
Experimental: Measuring Thrombin-Anti-Thrombin Complexes. Thrombin anti thrombin III complex (TAT) was measured using a commercial ELISA kit (Enzygnost TAT; Dade Behring). Some mice from each experimental group were studied until delivery and the litter sizes were recorded at birth.

CBA/J×DBA/2 mice [2] = experiment: Fetal resorption frequency in CBA/J×DBA/2 matings (non aPL-dependent recurrent miscarriage); assay type: in vivo, mouse; settings: day 15 of pregnancy, FIG. 7, 15A, 17A
Excerpt: Protocol. DBA/2-mated female CBA/J mice (CBA/J×DBA/2) are a well-studied model of immunologically mediated pregnancy loss that shares features with human recurrent miscarriage (Clark, D A et al., 1998, J. Immunol. 160:545-549; Blois, M. et al., 2005, J. Immunol. 174:1820-1829). Embryonic lethality in DBA/2-mated female CBA/J mice is believed to represent rejection of the semiallogeneic placenta by maternal-derived activated effectors. 8-10-wk-old virgin female CBA/J mice were mated with 8-14-wk-old CBA/J, BALB/c, or DBA/2 males. Females were inspected daily for vaginal plugs, and presence of a vaginal plug was designated as day 0 of pregnancy. A group of DBA/2- and BALB/c mated CBA/J females were treated with pravastatin (0.2 μg/g bw=5 μg/mouse, i.p) on days 5, 6 and 7 of pregnancy. […] Pregnant females were euthanized on day 15 and fetal resorption frequency was calculated.
Animals. Inbred CBA/J (H-2k), DBA/2 (H-2d) and BALB/c (H-2d) mice from The Jackson Laboratory were used. 8-10-wk-old virgin female CBA/J mice were mated with 8-14-wk-old BALB/c, or DBA/2 males. […] The frequency of fetal resorption was calculated on day 15 as previously described (Girardi et al., 2006, J Exp Med 203:2165-2175). Fetal weights were also determined. […]
(§1) Protocol. […] Nitric oxide (NO) was measured by a calorimetric method (R&D Systems). Plasma sVEGFR-1 was measured with a commercial ELISA kit (R&D Systems).

[3] = system: Isoprostane 8-iso-prostaglandin F2a (STAT-8); experiment: Placental STAT-8 (8-isoprostane) EIA, oxidative stress marker; assay type: in vivo, mouse; settings: CBA/J×DBA/2 mice, day 15 placentas, FIG. 16A
Experimental: STAT-8 Measurements. Isoprostane 8-iso-prostaglandin F2a (STAT-8) was measured as a marker for oxidative stress. Placental tissue was harvested at day 15 of pregnancy and homogenized in 9 volumes of 0.1 M Tris pH 7.4 containing 1 mM EDTA and 10 μM indomethacin and stored at −80° C. in the presence of 0.005% BHT before assayed for free 8-isoprostane using a STAT-8-Isoprostane EIA kit (Cayman Chemical Company, Ann Arbor, Mich.).

CBA/J×DBA/2 mice [4] = experiment: Fetal weight / IUGR in CBA/J×DBA/2 matings; assay type: in vivo, mouse; settings: day 15 of pregnancy, FIG. 10, 15B, 17B
Experimental: Protocol. 8-10-wk-old virgin female CBA/J mice were mated with 8-14-wk-old CBA/J, BALB/c, or DBA/2 males. Females were inspected daily for vaginal plugs, and presence of a vaginal plug was designated as day 0 of pregnancy. Pregnant mice were treated with pravastatin (0.2 μg/g bw=5 μg/mouse, i.p 18 hours prior to aPL or NHIgG injections on days 8 and 12). Pravastatin (Sigma Chemical, St Louis, Mo.) was dissolved in EtOH at a concentration of 10 mg/mL and diluted with NaCl 0.9% in a ratio of 1:1000 to yield a final concentration of 10 μg pravastatin per 1 mL carrier. The NaCl 0.9%-based carrier solution for the placebo group was prepared accordingly to include EtOH only (i.e., without pravastatin) at a concentration of 1:1000. Pregnant females were euthanized on day 15 and weights of fetuses were determined.
Animals. Inbred CBA/J (H-2k), DBA/2 (H-2d) and BALB/c (H-2d) mice from The Jackson Laboratory were used. 8-10-wk-old virgin female CBA/J mice were mated with 8-14-wk-old BALB/c, or DBA/2 males. Pregnant females were sacrificed at day 7 and at day 15. The frequency of fetal resorption was calculated on day 15 as previously described (Girardi et al., 2006, J Exp Med 203:2165-2175). Fetal weights were also determined. […]
as §1

Compound: CC[C@H](C)C(=O)O[C@H]1C[C@H](O)C=C2C=C[C@H](C)[C@H](CC[C@@H](O)C[C@@H](O)CC(=O)O)[C@H]21 [pravastatin]
- sFlt-1 released by monocytes (monocytes): 387 ± 78 pg/mL
- plasma sFlt-1 levels (sFlt-1): 18650 ± 5680 pg/mL
- % TF positive monocytes (TF): 10±4%

Compound: hirudin
- litter size at birth (CBA/J×DBA/2 mice [1]): increasing the litter size
- fetal resorption / fetal loss (CBA/J×DBA/2 mice [2]): prevented fetal resorptions
- placental STAT-8 increase [3]: prevented STAT-8 increase
- IUGR / growth restriction (fetal weight) (CBA/J×DBA/2 mice [4]): prevented fetal resorptions and growth restriction
